Series [1] in a line: Hydrolysis in human serum. The class given is in vitro ADME. To be noted: male, 37 °C, compound 250 μM, read-out: Human serum stability t1/2. The procedure:
A solution of each compound of the invention (10 mM) in acetonitrile was added to human serum (from human male AB plasma, Sigma) preheated at 37° C., the final concentration of the compound was 250 μM. Resulting solution were incubated at 37±0.5° C. and at appropriate time intervals 500 μL of reaction mixture was withdrawn and added to 750 μL of acetonitrile containing 0.1% trifluoroacetic acid in order to deproteinize the serum. Sample was sonicated, vortexed and then centrifuged for 10′ at 2150 g. The clear supernatant was filtered by 0.45 μm PTFE filters (Alltech) and analysed by RP-HPLC.
(§1) Analyses were carried out with a HP 1100 chromatograph system (Agilent Technologies, Palo Alto, Calif., USA) equipped with a quaternary pump (model G1311A), a membrane degasser (G1379A), a diode-array detector (DAD) (model G1315B) integrated in the HP1100 system. Data analysis was done using a HP ChemStation system (Agilent Technologies). The analytical column was a Nucleosil 100-5018 Nautilus (250×4.6 mm, 5 μm particle size) (Macherey-Nagel). The mobile phase consisting of acetonitrile/water (55/45) with 0.1% trifluoroacetic acid and the flow-rate was 1.2 mL/min. The injection volume was 20 μL (Rheodyne, Cotati, Calif.). The column effluent was monitored at 240 nm (for salicylic acid) and at 226 nm (for all the other products) and referenced against a 360 nm wavelength. Quantitation was done by comparison of peak areas with standards chromatographed under the same conditions. The hydrolysis followed first-order kinetics. The observed pseudo-first-order rate constants (kobs) were calculated from the slopes of linear plots of the natural logarithms of percent remaining products against time and the corresponding half-lives (t1/2) were obtained from […]

The nature of series [2]: Hydrolysis in acidic medium (pH 1) and in phosphate buffer (pH 7.4). It is filed as physicochemical. The note with it: for Stability in buffered solutions pH 1 % unchanged after 6 h: HCl 0.1M, pH 1, 37 °C; for Stability in buffered solutions pH 1 % unchanged after 6 h / Stability in buffered solutions pH 7.4 % unchanged after 6 h: 250 μM; for Stability in buffered solutions pH 7.4 % unchanged after 6 h: phosphate buffer 50 mM pH 7.4, 37 °C. The procedure:
A solution of each compound of the invention (10 mM) in acetonitrile was added to a HCl 0.1M or to a phosphate buffer 50 mM pH=7.4, containing, when necessary, 10-20% of acetonitrile as cosolvent. The final concentration of the compound was 250 μM. Resulting solution was kept at 37±0.5° C. and at appropriate time intervals a 20 μL aliquote of reaction solution was analysed by RP-HPLC.
as §1

A further series relates to rat aorta strips. The series can be described thus: Vasodilating activity on precontracted rat aorta strips. It is filed as cell-based. To be noted: endothelium-denuded rat aortic strips contracted with 1 μM L-phenylephrine; for EC50: read-out: vasodilating activity EC50 ± SE. The procedure: Thoracic aortas were isolated from male Wistar rats weighing 180-200 g. The endothelium was removed and the vessels were helically cut: three strips were obtained from each aorta. The tissues were mounted under 1.0 g tension in organ baths containing 30 ml of Krebs-bicarbonate buffer with the following composition (mM): NaCl 111.2, KCl 5.0, CaCl2 2.5, MgSO4 1.2, KH2PO4 1.0, NaHCO3 12.0, glucose 11.1, maintained at 37° C. and gassed with 95% O2-5% CO2 (pH=7.4). The aortic strips were allowed to equilibrate for 120 min and then contracted with 1 μM L-phenylephrine. When the response to the agonist reached a plateau, cumulative concentrations of the vasodilating agent were added.
All the compounds of the invention were capable to relax precontracted rat aorta strips in a concentration dependent manner.
When the vasodilator experiments were repeated in the presence of 1 μM ODQ (1H-[1,2,4]oxadiazolo[4,3-a]quinoxalin-1-one), a well known inhibitor of the soluble guanylate cyclase (sGC), a decrease in the vasodilator potencies was observed.

Another series has as its system human platelets. The series can be described thus: Inhibition of platelet aggregation in vitro. To be noted: human PRP, collagen 1.0 μg/mL. The class given is cell-based. As for the experimental part:
Platelet rich plasma (PRP) is prepared by centrifugation of citrated blood at 200 g for 20 minutes. […] Collagen (1.0 μg/mL) is used as platelet activator in PRP. The inhibitory activity of the compounds is tested by addition of drug to PRP 10 or 30 min before addition of the stimulus.
The antiaggregatory activity of the compounds of the invention is evaluated as % inhibition of platelet aggregation compared to control samples.

Setting [3] is: drug added 10 min before stimulus, read-out: Platelet Aggregation IC50 (collagen 95%) 10 min.
The mark [4] stands for this setting: drug added 30 min before stimulus, read-out: Platelet Aggregation IC50 (collagen 95%) 30 min.

Read-outs that look alike come from different tables or passages of the source.

As usually defined, the EC50 is the concentration needed to bring the measured effect to its halfway point. The term melting point denotes the temperature, or range, at which the solid turns liquid. One may read the IC50 as the concentration that gives 50% inhibition.

As to `CC(=O)Oc1ccccc1C(=O)OCOC(=O)c1ccc(SCC(CO[N+](=O)[O-])O[N+](=O)[O-])cc1` (centres unmarked) [(16), [(4-{[2,3-Bis(nitrooxy)propyl]thio}benzoyl)oxy]methyl 2-(acetyloxy)benzoate], in series [1], the half-life at 250 μM worked out at 4.8 min. Moreover, in series [2], the “Stability in buffered solutions pH 1 % unchanged after 6 h” value is on record as greater than 98% and the “Stability in buffered solutions pH 7.4 % unchanged after 6 h” value is recorded as greater than 98%.

Turning to `CC(=O)Oc1ccccc1C(=O)OCOC(=O)c1ccccc1OC(=O)CCC(CO[N+](=O)[O-])O[N+](=O)[O-]` (centres unmarked) [(13), [(2-{[4,5-Bis(nitrooxy)pentanoyl]oxy}benzoyl)oxy]methyl 2-(acetyloxy)benzoate], the EC50 with rat aorta strips is 82 ± 14 nM.

Turning to `CC(=O)Oc1ccccc1C(=O)OCOC(=O)CCCCCCO[N+](=O)[O-]` [(7), {[7-(Nitrooxy)heptanoyl]oxy}methyl 2-(acetyloxy)benzoate], the EC50 with rat aorta strips came out at 1600 ± 200 nM.

For `CC(=O)Oc1ccccc1C(=O)OC(C)OC(=O)c1ccc(SCCCO[N+](=O)[O-])cc1` (centres unmarked) [(24), 1-{[4-([3-(nitrooxy)propyl]thio}benzoyl)oxy]ethyl 2-(acetyloxy)Benzoate], in series [1], the half-life at 250 μM amounted to 4.2 min. Further, in series [2], the “Stability in buffered solutions pH 1 % unchanged after 6 h” value is reported as greater than 98% and the “Stability in buffered solutions pH 7.4 % unchanged after 6 h” value is given as greater than 98%.

Take `CC(=O)Oc1ccccc1C(=O)OCOC(=O)c1ccc(OCCCO[N+](=O)[O-])cc1O` [(14), {[2-(Acetyloxy)benzoyl]oxy}methyl 2-hydroxy-4-[3-(nitrooxy)propoxy]benzoate]: the concentration giving a half-maximal response (EC50) in the series on rat aorta strips was 8 ± 1.1 nM.

For `CC(=O)Oc1ccccc1C(=O)OCOC(=O)c1ccc(SCc2no[n+]([O-])c2C)cc1` [(20), [(4-{[(3-Methyl-furoxan-4-yl)methyl]thio}benzoyl)oxy]methyl 2-(acetyloxy)benzoate], the melting point was in the range of 96 to 97 °C.

In the case of `CC(=O)Oc1ccccc1C(=O)OCOC(=O)c1ccc(OCCCO[N+](=O)[O-])cc1` [(2), ({4-[3-(Nitrooxy)propoxy]benzoyl}oxy)methyl 2-(acetyloxy)benzoate], in series [1], the half-life at 250 μM came to 3 min. Also, in series [2], the “Stability in buffered solutions pH 1 % unchanged after 6 h” value was greater than 98% and the “Stability in buffered solutions pH 7.4 % unchanged after 6 h” value is greater than 98%. For the same compound, the EC50 in the series with rat aorta strips came to 17 ± 3 nM.

Compound `CC(=O)Oc1ccccc1C(=O)OCOC(=O)c1ccc(SCc2no[n+]([O-])c2C#N)cc1` [(22), [(4-{[(3-Cyano-furoxan-4-yl)methyl]thio}benzoyl)oxy]methyl 2-(acetyloxy)benzoate] registered a melting point of 98.5 to 101.5 °C.

With `CC(=O)Oc1ccccc1C(=O)OCOC(=O)CCCCO[N+](=O)[O-]` [(4)], the EC50 in the series on rat aorta strips was determined as 1900 ± 500 nM.

`CC(=O)Oc1ccccc1C(=O)OCOC(=O)CCCCCO[N+](=O)[O-]` [(5), {[6-(Nitrooxy)hexanoyl]oxy}methyl 2-(acetyloxy)benzoate]: in the series on rat aorta strips, the EC50 came to 1200 ± 200 nM.

`CC(=O)Oc1ccccc1C(=O)OCOC(=O)c1ccc(S(=O)(=O)CCCO[N+](=O)[O-])cc1` [(15), [(4-{[3-(Nitrooxy)propyl]sulfonyl}benzoyl)oxy]methyl 2-(acetyloxy)benzoate]: the half-life at 250 μM in series [1] was 1 min; in series [2] (phosphate buffer 50 mM pH 7.4, phosphate buffer pH 7.4, 37 °C, read-out: t1/2 in buffered solution pH 7.4), roughly 720 min. Further, the “Stability in buffered solutions pH 1 % unchanged after 6 h” value in series [2] is greater than 98%. Also, the “Stability in buffered solutions pH 7.4 % unchanged after 6 h” value in series [2] was 70%. Also, the concentration for half-maximal inhibition (IC50) came out at 34000 nM with human platelets (setting [3]) and 17000 nM in the series with human platelets (setting [4]).

Consider `CC(=O)Oc1ccccc1C(=O)OCOC(=O)c1ccc(SCCCO[N+](=O)[O-])cc1` [(11), [(4-{[3-(Nitrooxy)propyl]thio}benzoyl)oxy]methyl 2-(acetyloxy)benzoate], for which, in series [1], the half-life at 250 μM is 2 min. In addition, in series [2], the “Stability in buffered solutions pH 1 % unchanged after 6 h” value is on record as greater than 98% and the “Stability in buffered solutions pH 7.4 % unchanged after 6 h” value is greater than 98%.

`CC(=O)Oc1ccccc1C(=O)O` [Aspirin, reference compound]: in series [1], the half-life at 250 μM amounted to 63 min. The “vasodilating activity EC50 ± SE” value in the series on rat aorta strips was “no effect”.

As to `CC(=O)Oc1ccccc1C(=O)OCOC(=O)CCCCC(CO[N+](=O)[O-])O[N+](=O)[O-]` (centres unmarked) [(8), {[6,7-Bis(nitrooxy)heptanoyl]oxy}methyl 2-(acetyloxy)benzoate], the half-life at 250 μM in series [1] amounted to 2.5 min. For the same compound, in series [2], the “Stability in buffered solutions pH 1 % unchanged after 6 h” value is recorded as greater than 98% and the “Stability in buffered solutions pH 7.4 % unchanged after 6 h” value is listed as 100%. The concentration giving a half-maximal response (EC50) in the series on rat aorta strips is 520 ± 90 nM.

Compound `CC(=O)Oc1ccccc1C(=O)OCOC(=O)c1ccc(SCc2no[n+]([O-])c2C(N)=O)cc1` [(21), [(4-{[(3-Aminocarbonyl-furoxan-4-yl)methyl]thio}benzoyl)oxy]methyl 2-(acetyloxy)benzoate] showed a melting point of 149 to 151 °C.

For `CC(=O)Oc1ccccc1C(=O)OCOC(=O)c1ccc(CCCO[N+](=O)[O-])cc1` [(12), ({4-[3-(Nitrooxy)propyl]benzoyl}oxy)methyl 2-(acetyloxy)benzoate], the EC50 in the series with rat aorta strips was found to be 75 ± 14 nM. For the same compound, the figures for the IC50 in the series with human platelets (setting [3]) and with human platelets (setting [4]) were 41000 nM and 14000 nM, respectively.

`CC(=O)Oc1ccccc1C(=O)OCOC(=O)CCCC(CO[N+](=O)[O-])O[N+](=O)[O-]` (centres unmarked) [(6), {[5,6-Bis(nitrooxy)hexanoyl]oxy}methyl 2-(acetyloxy)benzoate]: the half-life at 250 μM in series [1] is 2.7 min. Moreover, in series [2], the “Stability in buffered solutions pH 1 % unchanged after 6 h” value is given as greater than 98% and the “Stability in buffered solutions pH 7.4 % unchanged after 6 h” value amounted to 100%. For the same compound, the EC50 with rat aorta strips turned out to be 390 ± 60 nM.

In the case of `CC(=O)Oc1ccccc1C(=O)OCOC(=O)Cc1ccc(OCCCO[N+](=O)[O-])cc1` [(9)], the half-life at 250 μM in series [1] worked out at 1.5 min. In addition, in series [2], the “Stability in buffered solutions pH 1 % unchanged after 6 h” value is greater than 98% and the “Stability in buffered solutions pH 7.4 % unchanged after 6 h” value is recorded as greater than 98%. Besides, the 50% effective concentration (EC50) in the series with rat aorta strips is 300 ± 60 nM.

As for `CC(=O)Oc1ccccc1C(=O)OCOC(=O)Cc1ccc(OCC(CO[N+](=O)[O-])O[N+](=O)[O-])cc1` (centres unmarked) [(10), [(2-{4-[2,3-Bis(nitrooxy)propoxy]phenyl}acetyl)oxy]methyl 2-(acetyloxy)benzoate], the EC50 with rat aorta strips came to 270 ± 50 nM.

Turning to `CC(=O)Oc1ccccc1C(=O)OCOC(=O)c1ccc(CC(CO[N+](=O)[O-])O[N+](=O)[O-])cc1` (centres unmarked) [(1), ({4-[2,3-Bis(nitrooxy)propyl]benzoyl}oxy)methyl 2-(acetyloxy)benzoate], the half-life at 250 μM in series [1] worked out at 3.4 min. Also, in series [2], the “Stability in buffered solutions pH 1 % unchanged after 6 h” value was greater than 98% and the “Stability in buffered solutions pH 7.4 % unchanged after 6 h” value turned out to be 100%. In addition, the EC50 in the series on rat aorta strips stood at 52 ± 7 nM.

On to `CC(=O)Oc1ccccc1C(=O)OCOC(=O)c1ccc(OCC(CO[N+](=O)[O-])O[N+](=O)[O-])cc1` (centres unmarked) [(3), ({4-[2,3-Bis(nitrooxy)propoxy]benzoyl}oxy)methyl 2-(acetyloxy)benzoate], for which the half-life at 250 μM in series [1] came out at 5.4 min. Moreover, in series [2], the “Stability in buffered solutions pH 1 % unchanged after 6 h” value is greater than 98% and the “Stability in buffered solutions pH 7.4 % unchanged after 6 h” value is greater than 98%. Besides, the EC50 in the series on rat aorta strips was found to be 41 ± 7 nM.

Values taken from patent US20100210694A1 (NICOX S.A., priority 2007, published 2010).
